Here are results for 2 compounds from patent publication US8772243B2, “Methods for predicting the response to anti-cancer treatment with an agonist of TLR7 or an agonist of TLR8” (Inserm (Institut National de la Sante et de la Recherche …, priority 2008, dated 2014).

What all share (assay type): cell-based, human
Test [1] deals with IκBα (NF-κB activation) in A549 cells. The test is described as follows: Western blot of IκBα phosphorylation and degradation (NF-κB activation) in A549 cells. The following applies: loxoribine 10 μg/ml or Poly U 10 μg/ml. Here is the method: FIG. 3 TLR7 and TLR8 lead to IκBα phosphorylation, but not degradation. A549 cells were untreated or treated with TNF-α (10 ng/ml) (A, B), loxoribine (10 μg/ml) (C, D), or Poly U (10 μg/ml) (E, F) for the indicated periods of time. The cell lysates were analyzed by immunoblot with anti-phospho-specific IκBα, anti-IκBα and anti-actin antibodies (A, C, E). Quantification of the bands was realized using Image J software (B, D, F). Histograms represent the intensity of each band observed in the blots at the indicated time point and are expressed in arbitrary units normalized to actin intensity (relative intensity) both for phospho-IκBα and IκBα. Results are representative of three independent experiments.
A549 cells (1.10^6 cells) were starved for 4 hours in medium containing 2% FCS, and then stimulated with loxoribine, PolyU, or TNFα (10 ng/ml) for different periods of time as indicated. Cells were lysed in 50 mM Tris-HCl, pH 7.5, 150 mM NaCl, 2 mM EDTA, 0.5% triton X100, 2 mM Na3VO4, 10 mM NaF, and 10 mM sodium pyrophosphate supplemented with a complete protease inhibitor cocktail (Boehringer, Paris, France). Protein contents in the cell lysates were quantified using the quick start Bradford protein assay kit (Biorad, Marnes-La-Coquette, France) to ensure that all samples contained similar amounts of protein. Proteins (30 μg) were resolved in 10% Tris-glycine polyacrylamide gels (Invitrogen, Cergy Pontoise, France) and transferred to PVDF immobilon-P membranes (Millipore, Molsheim, France). Blots were probed with monoclonal antibody against phospho-IκBα (Cell Signaling Technology, Danvers, USA), total IκBα, and actin (Santa Cruz, Le Perray en Yvelines, France).
In order to determine if the TLR7 and 8 expressed by lung tumor cell lines were able to induce intracellular signaling pathways, we studied NF-κB activation in response to stimulation with TNFα, loxoribine (homodimeric TLR7 ligand), or Poly U (homodimeric TLR8 ligand). […] In contrast TLR7 or 8 stimulation led to atypical NF-κB activation. […] Furthermore, we also observed that the kinetics of IκBα phosphorylation were dependent on the stimulus. On the one hand, TNFα stimulation induced two waves of IκBα phosphorylation; the first one after ten minutes was associated with IκBα degradation, and the second one after sixty minutes was not associated with IκBα degradation. On the other hand, we observed that TLR stimulation induced only a phosphorylation of IκBα, with a maximum phosphorylation obtained after thirty minutes without degradation of IκBα.

Test [2] has as its system Bcl-2 expression in A549 cells. As to the kind of experiment: Bcl-2 expression, Taq Man Low Density Array, A549. To be noted: 6 h, RT-PCR. Here is the method:
FIG. 4 TLR7 and 8 induce survival of lung tumor cells. (A) A549 cells were unstimulated, stimulated with loxoribine (10 μg/ml), Poly U (10 μg/ml), or Gardiquimod(10μg/ml) and incubated with Alamar blue for 10 days. Reduction of Alamar blue was then determined by spectrophotometry at 570 and 600 nm. The percentage of reduced Alamar blue was calculated as described by the manufacturer. A549 cells were unstimulated or stimulated with loxoribine, Poly U, Gardiquimod, etoposide, or cycloheximide for 24 h. (B) The percentage of dead cells was determined by Trypan blue exclusion. (C) The DNA content was measured by IP staining after RNAse A treatment. The percentages indicate the proportion of subdiploid (G0/G1) and […]. Data represent mean values±SD from 3 independent experiments (*p<0.05; ** p<0.01, Student test). (D) A549 cells were cultured for 6 h in the presence of loxoribine, Poly U, or Gardiquimod, and the expression of Bcl-2 was assayed using Taq Man Low Density Array technology. The ΔCT values for Bcl-2 expression were calculated by subtraction of the CT value obtained for the 18S housekeeping gene. The ΔΔCT values were obtained by subtraction of ΔCT values for unstimulated cells from those obtained for stimulated cells. […]
Total RNA was extracted from A549 or SK-MES cells stimulated with loxoribine, Poly U, or Gardiquimod for 6 h or from purified human lung cancer cells using the RNeasy isolation-kit RNA (Qiagen, Courtaboeuf, France). The integrity and the quantity of the RNA were evaluated with a bioanalyzer-2100 (Agilent Technologies). All samples were assessed for gene expression analysis using the Taq Man Low-Density Array angiogenesis and immune panel (Applied Biosystem). […] Quantitative real-time TaqMan-PCR was performed using Low-Density-Arrays and the 7900 robotic real-time PCR-system (Applied-Biosystems). […] Data were analyzed using the SDS Software v2.2 (Applied-Biosystems). The ΔCT values were calculated for each gene by subtraction of the CT value of the 18S housekeeping gene from the CT of the gene of interest. […]

The next test relates to A549 and SK-MES cells. As to the kind of experiment: Transcriptomic analysis of 182 genes (Taq Man Low Density Array). The following applies: 6 h stimulation; versus unstimulated cells. Here is the method:
FIG. 6 TLR7 and 8 induce regulation of gene transcription. A549 or SK-MES cells were cultured for 6 h in the presence of loxoribine, Poly U, or Gardiquimod. Total RNA was extracted and analyzed for the expression of 182 genes using Taq Man Low Density Array technology. All genes with a value greater than 35 (CT) were excluded from the analysis. The ΔCT values for the expression of all genes were calculated by subtraction of the CT value of the 18S housekeeping gene. The ΔΔCT values were obtained by subtraction of the ΔCT values for unstimulated cells from those obtained for TLR7- or 8-stimulated cells. The fold increase (arbitrary unit) was obtained by 2^−ΔΔCT. Values were then clustered using the Genesis Software.
Total RNA was extracted from A549 or SK-MES cells stimulated with loxoribine, Poly U, or Gardiquimod for 6 h or from purified human lung cancer cells using the RNeasy isolation-kit RNA (Qiagen, Courtaboeuf, France). The integrity and the quantity of the RNA were evaluated with a bioanalyzer-2100 (Agilent Technologies). All samples were assessed for gene expression analysis using the Taq Man Low-Density Array angiogenesis and immune panel (Applied Biosystem). The RT-PCR experiments were carried-out according to the manufacturer's instructions (Applied-Biosystems). Quantitative real-time TaqMan-PCR was performed using Low-Density-Arrays and the 7900 robotic real-time PCR-system (Applied-Biosystems). The 18S primers and probes were used as internal controls. Data were analyzed using the SDS Software v2.2 (Applied-Biosystems). The ΔCT values were calculated for each gene by subtraction of the CT value of the 18S housekeeping gene from the CT of the gene of interest. The ΔΔCT values were obtained by subtraction of the ΔCT values for unstimulated cells from the […]. The fold increase (arbitrary unit) was obtained by 2^−ΔΔCT.

Test [3] has as its system 1549, H1355 and SK-MES cells. As to the kind of experiment: Chemoresistance by colony formation assay. To be noted: stimulated with Loxoribine 100 μM and/or polyU 10 μg/ml on days 0, 3, 6, 9. Here is the method:
Alternatively, chemoresistance was assessed by the colony formation assay. In this assay, 1549, H1355 and SK-MES cells were seeded in 6-well plates (500 cells per well) and incubated for 15 days at 37° under 5% CO2. The cells were left unstimulated or stimulated 100 μM Loxoribine or with 10 μg/ml single-stranded polyU RNA (InvivoGen) on days 0, 3, 6 and 9. On day 12, different anti-cancer agents were added at the respective LD50 (cisplatin and carboplatin 100 μM, navelbine 50 μM, doxorubicine 2 nM). On day 15, the wells ware washed with PBS, and stained with 6% (vol/vol) glutaraldehyde, 0.5% (wt/vol) crystal violet in water for 30 minutes. The cells were washed and the colonies of more than 50 cells counted. Cell survival was calculated as follows: number of colonies after chemotherapy/number of cells seeded on day 0×plating efficiency, where the plating efficiency is number of colonies/number of cells seeded.

Turning to Poly U, the “time at which IκBα was phosphorylated (maximum phosphorylation)” value in test [1] is recorded as “thirty”. Also, in test [2], the “Bcl-2 expression compared to untreated cells” value is listed as “increased expression of Bcl-2”. Moreover, in the test with A549 and SK-MES cells, the “genes down-regulated in both SK-MES and A549 cells” value is “Prolactin (PRL), CD80, Fibronectin-1 (FN-1), A Disintegrin And Metalloproteinase with ThromboSpondin motif 1 (ADAMTS1), and Serpin Peptidase Inhibitor Clade C1 (SERPINC1)”; the “genes up-regulated in A549 cells, but down-regulated in SK-MES cells” value was “Angiopoietin like 3 (ANGPTL3), Serpin Peptidase Inhibitor Clade F1 (SERPINF1), and Angiopoietin 1 (ANGPT1)”; the “genes up-regulated in SK-MES, but down-regulated in A549 cells” value was “ANGPTL1, Platelet Factor 4 (PF4), and fms related tyrosine kinase 4 (FLT4)”; the “genes up-regulated in both SK-MES and A549 cells” value was “Bcl-2, CCR4, and Vasohibin-1 (VASH-1)”. Moreover, the “resistance of colonies to combined anti-cancer agents” value in test [3] is given as “more resistant to treatment with combined anti-cancer agents”.

`C=CCn1c(=O)n([C@@H]2O[C@H](CO)[C@@H](O)[C@H]2O)c2nc(N)[nH]c(=O)c21` [loxoribine, 7-allyl-7,8-dihydro-8-oxo-guanosine]: in test [1], the “time at which IκBα was phosphorylated (maximum phosphorylation)” value is listed as “thirty”. For the same compound, the “Bcl-2 expression compared to untreated cells” value in test [2] is recorded as “increased expression of Bcl-2”. Also, in the test with A549 and SK-MES cells, the “genes down-regulated in both SK-MES and A549 cells” value is “Prolactin (PRL), CD80, Fibronectin-1 (FN-1), A Disintegrin And Metalloproteinase with ThromboSpondin motif 1 (ADAMTS1), and Serpin Peptidase Inhibitor Clade C1 (SERPINC1)”; the “genes up-regulated in A549 cells, but down-regulated in SK-MES cells” value was “Angiopoietin like 3 (ANGPTL3), Serpin Peptidase Inhibitor Clade F1 (SERPINF1), and Angiopoietin 1 (ANGPT1)”; the “genes up-regulated in SK-MES, but down-regulated in A549 cells” value is “ANGPTL1, Platelet Factor 4 (PF4), and fms related tyrosine kinase 4 (FLT4)”; the “genes up-regulated in both SK-MES and A549 cells” value was “Bcl-2, CCR4, and Vasohibin-1 (VASH-1)”. In addition, the “resistance of colonies to combined anti-cancer agents” value in test [3] is recorded as “more resistant to treatment with combined anti-cancer agents”.
